Experimental data taken from patent US20060035889A1, “Treatment for methamphetamine addiction and reduction of methamphetamine use using serotonin antagonists” (priority 2004, published 2006).

Columns and labels:
5-HT1A = molecular target: T1, 5-HT1A (Homo sapiens, UniProt P08908); conditions: read-out: receptor affinity (Ki) 5-HT1A; cited from earlier work
T1 sequence (P08908 1-422): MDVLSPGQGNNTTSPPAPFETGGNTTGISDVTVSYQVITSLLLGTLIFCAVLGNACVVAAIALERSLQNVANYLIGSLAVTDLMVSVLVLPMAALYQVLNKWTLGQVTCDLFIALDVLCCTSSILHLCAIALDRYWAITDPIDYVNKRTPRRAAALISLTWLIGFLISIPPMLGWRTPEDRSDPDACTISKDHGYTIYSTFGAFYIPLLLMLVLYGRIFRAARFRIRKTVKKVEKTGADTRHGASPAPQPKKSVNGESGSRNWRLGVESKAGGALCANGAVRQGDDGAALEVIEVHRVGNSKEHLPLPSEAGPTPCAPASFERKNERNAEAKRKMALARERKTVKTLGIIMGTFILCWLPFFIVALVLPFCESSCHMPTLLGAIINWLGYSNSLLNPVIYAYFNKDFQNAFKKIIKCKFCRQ

D1 = D1 (Homo sapiens, UniProt P21728); conditions: read-out: receptor affinity (Ki) D1; cited from earlier work
Sequence of D1 (P21728 whole entry, the tested form may be a part): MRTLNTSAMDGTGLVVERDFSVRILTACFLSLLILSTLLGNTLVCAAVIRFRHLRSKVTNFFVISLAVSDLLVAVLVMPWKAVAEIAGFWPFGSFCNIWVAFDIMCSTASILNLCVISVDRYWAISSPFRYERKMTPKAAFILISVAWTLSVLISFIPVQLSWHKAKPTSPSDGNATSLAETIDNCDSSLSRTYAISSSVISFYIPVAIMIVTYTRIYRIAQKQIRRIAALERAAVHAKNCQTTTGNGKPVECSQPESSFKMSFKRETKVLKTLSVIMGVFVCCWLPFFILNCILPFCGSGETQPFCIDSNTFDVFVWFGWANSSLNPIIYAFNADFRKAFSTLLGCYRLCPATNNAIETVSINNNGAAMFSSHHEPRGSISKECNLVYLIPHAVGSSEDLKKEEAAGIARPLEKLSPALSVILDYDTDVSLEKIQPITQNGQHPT

[1] = tested on: cocaine seeking behaviors; conditions: rats, cited from earlier work; for maintenance of cocaine self-administration: 0.25-1 mg/kg, cocaine 0.5 mg/kg/infusion iv
a = conditions: read-out: receptor affinity (Ki) a; cited from earlier work
5-HT2C = molecular target: T2, 5-HT2C (Homo sapiens, UniProt P28335); conditions: read-out: receptor affinity (Ki) 5-HT2C; cited from earlier work
T2 sequence (P28335 33-458): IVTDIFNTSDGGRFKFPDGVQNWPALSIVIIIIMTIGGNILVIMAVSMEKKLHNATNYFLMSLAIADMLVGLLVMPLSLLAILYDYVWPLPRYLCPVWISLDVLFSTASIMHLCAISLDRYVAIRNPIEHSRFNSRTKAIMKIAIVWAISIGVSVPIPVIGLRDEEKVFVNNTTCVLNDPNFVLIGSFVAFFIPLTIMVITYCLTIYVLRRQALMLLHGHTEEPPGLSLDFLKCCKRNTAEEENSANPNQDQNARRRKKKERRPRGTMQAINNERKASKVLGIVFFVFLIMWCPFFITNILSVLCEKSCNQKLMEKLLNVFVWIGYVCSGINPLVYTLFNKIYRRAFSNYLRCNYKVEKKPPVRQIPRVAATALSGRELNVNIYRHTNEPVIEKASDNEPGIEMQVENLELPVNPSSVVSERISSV

5-HT2A = 5-HT2A (Homo sapiens, UniProt P28223); conditions: read-out: receptor affinity (Ki) 5-HT2A; cited from earlier work
Sequence of 5-HT2A (P28223 whole entry, species assumed): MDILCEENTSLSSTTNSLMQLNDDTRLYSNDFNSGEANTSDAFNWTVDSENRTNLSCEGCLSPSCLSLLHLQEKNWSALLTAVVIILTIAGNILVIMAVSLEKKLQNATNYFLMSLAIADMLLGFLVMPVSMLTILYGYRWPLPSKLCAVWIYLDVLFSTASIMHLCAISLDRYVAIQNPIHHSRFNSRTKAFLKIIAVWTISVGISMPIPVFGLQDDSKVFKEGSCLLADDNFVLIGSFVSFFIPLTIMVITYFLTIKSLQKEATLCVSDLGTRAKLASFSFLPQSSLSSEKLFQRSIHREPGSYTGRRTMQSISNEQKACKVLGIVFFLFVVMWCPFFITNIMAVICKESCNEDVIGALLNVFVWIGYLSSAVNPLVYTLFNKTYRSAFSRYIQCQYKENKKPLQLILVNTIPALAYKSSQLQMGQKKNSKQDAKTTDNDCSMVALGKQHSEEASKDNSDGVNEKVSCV

5-HT3 = molecular target: T3, 5-HT3 (Homo sapiens, UniProt P46098); conditions: read-out: receptor affinity (Ki) 5-HT3; cited from earlier work
T3 sequence (P46098 24-478): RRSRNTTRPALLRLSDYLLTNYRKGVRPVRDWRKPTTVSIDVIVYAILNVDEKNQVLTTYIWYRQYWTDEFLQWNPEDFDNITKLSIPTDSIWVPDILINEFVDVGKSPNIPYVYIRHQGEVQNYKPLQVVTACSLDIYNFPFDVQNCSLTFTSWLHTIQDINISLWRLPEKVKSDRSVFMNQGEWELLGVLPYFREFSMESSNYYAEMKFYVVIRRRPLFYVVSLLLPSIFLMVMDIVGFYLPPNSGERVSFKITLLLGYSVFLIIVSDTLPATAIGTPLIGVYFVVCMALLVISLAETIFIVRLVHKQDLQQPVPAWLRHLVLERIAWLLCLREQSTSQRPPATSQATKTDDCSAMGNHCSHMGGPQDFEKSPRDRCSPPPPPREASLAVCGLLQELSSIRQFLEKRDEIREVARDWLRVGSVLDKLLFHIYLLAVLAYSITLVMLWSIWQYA

D2 = D2 (Homo sapiens, UniProt P14416); conditions: read-out: receptor affinity (Ki) D2; cited from earlier work
Sequence of D2 (P14416 whole entry): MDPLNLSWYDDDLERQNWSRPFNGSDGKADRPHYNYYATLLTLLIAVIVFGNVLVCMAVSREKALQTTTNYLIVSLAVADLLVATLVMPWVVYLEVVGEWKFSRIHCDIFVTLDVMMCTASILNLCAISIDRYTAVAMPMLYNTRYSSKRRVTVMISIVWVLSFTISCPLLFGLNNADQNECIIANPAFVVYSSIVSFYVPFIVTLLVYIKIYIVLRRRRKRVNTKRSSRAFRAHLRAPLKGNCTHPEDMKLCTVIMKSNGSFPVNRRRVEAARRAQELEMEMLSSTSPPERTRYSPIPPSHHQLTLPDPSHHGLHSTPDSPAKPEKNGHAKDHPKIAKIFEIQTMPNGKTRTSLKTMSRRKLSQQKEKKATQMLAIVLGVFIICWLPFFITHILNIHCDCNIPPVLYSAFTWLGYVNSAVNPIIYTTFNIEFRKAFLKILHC

METH-conditioned rats = assay: METH-induced conditioned place preference (CPP) with simultaneous motor sensitization; format: in vivo, rat; conditions: single home cage injection 0.03, 0.1 or 1.0 mg/kg SDZ SER 082 24 h before test (FIG. 13)
Text: The CPP box (Accuscan, Columbus, Ohio) consists of three Plexiglas compartments, each with distinct visual and tactile cues (on one side, patterned floor with object attached and horizontally striped wall; on the opposite side, smooth floor with no object and vertically striped walls; center—uniformly white floor and walls). The center compartment can be separated from the left and right compartments by removable guillotine doors. Motor activity in three dimensional space, and time spent, in each compartment is detected by two sets of photobeams set at different heights from the floor. Drug conditioning is performed by administering METH to the rat while it is in one compartment, and on the alternating day, saline is administered while the rat is confined to the opposite compartment. Confinement was achieved by blocking access to other compartments using the guillotine door. The center compartment is not seen by the rat during conditioning, and all conditioning sessions last for 45 min.
The inventors have determined that the number of METH-pairings, and the dose of METH, dictate the strength of the drug-environment association (i.e., the magnitude of salience attribution). The test for CPP is determined in a METH-free state (i.e., at least 48 hr after that last METH pairing), at which time the rats are placed in the center compartment and allowed free access to all compartments for 30 min, and the time spent in each compartment is the index of preference. The inventors have determined that the number of METH-pairings, and the dose of METH, dictate the strength of the drug-environment association (i.e., the magnitude of salience attribution) and thus the amount of time spent in the compartment previously paired with METH (FIG. 7), as well as persistence of this effect (i.e., how long it lasts; FIG. 8A). METH-induced motor sensitization can be assessed in several ways, including assessing the capacity of the rat to express an enhanced motor response to an acute METH challenge (FIGS. 9 & 10A).
To efficiently apply this approach to testing of 5-HT2A/2C antagonists, we determined that single pairing protocols of the CPP paradigm can be used to predict efficacy outcomes of 5-HT2A/2C antagonists in long-term tests on these drugs evaluating their capacity to nullify the persistent enhanced salience induced by METH. […] Thus, these protocols should help predict the capacity of novel therapeutic targets to halt a common problem of drug relapse, i.e., the ability of re-exposure to drugs like METH to immediately reinstate their abuse.

[2] = tested on: cocaine-induced behavioral sensitization; conditions: given in acute withdrawal period from cocaine dosing; cited from earlier work
METH-sensitized rats = assay: Reversal of METH-induced behavioral sensitization by 5-HT2A/2C antagonists (motor activity after acute METH challenge); format: in vivo, rat; conditions: ketanserin 1 mg/kg once daily M-F 3 weeks; 1 mg/kg METH challenge w/d day 30/31
Text: Automation of observational evaluations was accomplished using computerized small animal monitors (AccuScan Instr. Inc., Columbus, Ohio). […] One feature of drug-induced behavioral sensitization is heterogeneity of motor responses and the AccuScan monitors quantify numerous behavioral indices. This is a critical point for the motor profile is exquisitely related to METH dose, the drug history of the rat and observation time. After 3- or 31-days of withdrawal from repeated METH injections, rats were allowed to achieve baseline motor activity with a 30 min habituation period, challenged with 1 mg/kg sc METH and monitored for 90 min.
Multiple 5-HT2A/2C antagonists with differing pharmacological profiles were tested for their ability to ameliorate METH-induced behavioral sensitization when administered after sensitization has developed. […] The doses were selected based on the antagonists' ability to block 5-HT2A- and 5-HT2C-mediated activity and their pharmacokinetic profiles.

ventral pallidal neurons = assay: Electrophysiology of ventral pallidal neurons, i.v. METH dose-response in chloral hydrate-anesthetized rats; format: in vivo, rat
Method: Based on the biochemical results and because the ventral pallidum contains one of the highest concentrations of 5-HT in the brain, electrophysiological evaluations of this region in rats behaviorally sensitized to METH were conducted (with a 5-day once daily treatment of 2.5 mg/kg). The acute challenge was intravenously administered METH (via a tail vein cannula) as previously used by T. C. Napier's lab ^e.g., [34] where the drug is given in a cumulative dosing fashion such that each dose, administered in 2 min-intervals, essentially doubles the previous dose. METH was tested using a range of 0.06-4.0 mg/kg in saline vehicle. […] Moreover, this approach establishes if systemic administration of METH, in doses that include those producing behavioral sensitization, are sufficient promote sensitized cellular responding and thus allows for direct comparisons of cellular responding to behavioral outcomes. After a 3-day withdrawal, the ability of intravenously administered METH or 1-(2,5-dimethoxy-4-iodophenyl)-2-aminopropane (DOI) to increase ventral pallidal cell firing was enhanced in chloral hydrate-anesthetized rats, as shown by a leftward shift in the dose-response curve with a […] and an increase in response efficacy for both agonists (FIG. 16) and this occurred without any changes in the portion of neurons showing a rate increase or decrease to the acute METH challenge.
Electrophysiological assessment of the ventral pallidum was also conducted 30 days after repeated METH. […] For each experiment, an i.v. METH dose-response curve (METH was tested using a range of 0.06-2.0 mg/kg in saline vehicle) was generated for one ventral pallidal neuron per rat at 30 days withdrawal from repeated METH. Based on the analysis of curves where there was an excitatory effect of i.v. METH on ventral pallidal neurons (171 animals), there was a diminished excitatory effect of i.v. METH in the ventral pallidum of rats that were pretreated with METH only. This is illustrated by both the curves and corresponding Emax data in FIG. 17. This decrease only at long-term withdrawal mirrors the reduction seen in pallidal pCREB only after 14, but not at 3 day withdrawal from repeated METH (see Example III).

CN1CCC2CN3CCc4cccc(c43)C2C1 (stereo not drawn) [SDZ SER 082, 4,5,7a,8,9,10,11,11 a,-octahydro-7H-10-methylindolo[1,7,bc][2,6]-napthyridine]
Ki (5-HT1A): 800 nM
Ki (D1): > 1000 nM
maintenance of cocaine self-administration [1]: Neither SR 46349B (0.25-1 mg/kg) nor SDZ SER 082 (0.25-1 mg/kg) altered
cue- and cocaine priming-induced reinstatement ([1]; cocaine priming 10 mg/kg ip or cue): failed to alter
Ki (a): > 1000 nM
Ki (5-HT2C): 15 nM
Ki (5-HT2A): 600 nM
Ki (5-HT3): > 1000 nM
Ki (D2): > 1000 nM
METH-induced CPP after single pairing of 1.0 METH (METH-conditioned rats): reverses METH-induced CPP in a dose-dependent fashion

CN1CCN2c3ccccc3Cc3ccccc3C2C1 (stereo not drawn) [mianserin]
established behavioral sensitization to cocaine [2]: reverse the established behavioral sensitization

CN(C)CCO/N=C(/C=C/c1ccc(O)cc1)c1ccccc1F.CN(C)CCO/N=C(/C=C/c1ccc(O)cc1)c1ccccc1F.O=C(O)/C=C/C(=O)O [SR 46349B]
maintenance of cocaine self-administration [1]: Neither SR 46349B (0.25-1 mg/kg) nor SDZ SER 082 (0.25-1 mg/kg) altered

Cc1nccn1CC1CCc2c(c3ccccc3n2C)C1=O (stereo not drawn) [ondansetron]
established behavioral sensitization to cocaine [2]: reverse the established behavioral sensitization

O=C(c1ccc(F)cc1)C1CCN(CCn2c(=O)[nH]c3ccccc3c2=O)CC1 [ketanserin]
effect on horizontal activity and vertical movements in METH-pretreated group (METH-sensitized rats): appeared to potentiate the effect
locomotor effects on saline-pretreated animals (acute METH challenge) (METH-sensitized rats): did not produce any locomotor effects
Emax of Firing Rate Increases of Acute Meth (ventral pallidal neurons; METH days 1-5, then antagonist, tested 31 days after last METH): 177% ± 18% (n = 4)
established behavioral sensitization to cocaine [2]: reverse the established behavioral sensitization

CN[C@@H](C)Cc1ccccc1 [METH, Methamphetamine]
Emax of Firing Rate Increases of Acute Meth (ventral pallidal neurons; repeated METH days 1-5, then vehicle, P < 0.05 vs saline + vehicle): 161% ± 16% (n = 11)
